Bridge positions count the residues as written; N and C are the ends. Peptide text beside a SMILES is read from it.
The compounds below were run against human IgG (assay: Surface plasmon resonance (SPR) analysis of synthetic peptide binding to human IgG). Conditions: SPR, synthetic peptide binding to human IgG; read-out: Kd.
Description: In order to narrow down the amino acid region to be studied, a peptide in which one amino acid was deleted from each end of GFc-C35 (GFc-C35-2/16) and a peptide in which two amino acids were deleted from each end of CFc-C35 (GFc-C35-3/15) were synthesized. Among these peptides, based on the GFc-C35-3/15 synthetic peptide, the effect of the introduction of amino acid mutations on affinity was evaluated. That is, the contribution of each amino acid substitution to affinity was evaluated by synthesizing peptides substituted with frequently or occasionally observed amino acids obtained from the phage libraries and subjecting the resulting synthetic peptides to binding analysis.
Based on the synthetic peptide C35A, peptides substituted with amino acids observed at high frequency in the aforementioned phage libraries were synthesized by introducing amino acid mutations, and in a similar manner to the above, their binding to human IgG was analyzed by surface plasmon resonance (SPR) analysis to evaluate the contribution of each amino acid substitution to affinity.

Row | SMILES | Kd [nM]
1 | CC(C)C[C@@H]1NC(=O)[C@H](CCC(=O)O)NC(=O)CNC(=O)[C@H](CCCNC(=N)N)NC(=O)[C@H](Cc2c[nH]cn2)NC(=O)[C@H](Cc2ccc(O)cc2)NC(=O)[C@H](C)NC(=O)[C@@H](NC(=O)[C@H](CCCNC(=N)N)NC(=O)[C@@H]2CCCN2C(=O)CN)CSSC[C@@H](C(=O)N[C@@H](CO)C(=O)N[C@@H](Cc2ccccc2)C(=O)N[C@@H](Cc2c[nH]cn2)C(N)=O)NC(=O)[C@H](Cc2c[nH]c3ccccc23)NC(=O)[C@H](C(C)C)NC1=O [C35A (D3R, T15S), GPRCAYHRGELVWCSFH] (H-GPRCAYHRGELVWCSFH-NH2; disulfide 4-14) | 42
2 | CC(C)C[C@@H]1NC(=O)[C@H](CCC(=O)O)NC(=O)CNC(=O)[C@H](CCCNC(=N)N)NC(=O)[C@H](Cc2c[nH]cn2)NC(=O)[C@H](Cc2ccc(O)cc2)NC(=O)[C@H](C)NC(=O)[C@@H](NC(=O)[C@H](CO)NC(=O)[C@@H]2CCCN2C(=O)CN)CSSC[C@@H](C(=O)N[C@H](C(=O)N[C@@H](Cc2ccccc2)C(=O)N[C@@H](Cc2c[nH]cn2)C(N)=O)[C@@H](C)O)NC(=O)[C@H](Cc2c[nH]c3ccccc23)NC(=O)[C@H](C(C)C)NC1=O [C35A (D3S), GPSCAYHRGELVWCTFH] (H-GPSCAYHRGELVWCTFH-NH2; disulfide 4-14) | 28.5
3 | CC(C)C[C@@H]1NC(=O)[C@H](CCC(=O)O)NC(=O)CNC(=O)[C@H](CCCNC(=N)N)NC(=O)[C@H](Cc2c[nH]cn2)NC(=O)[C@H](Cc2ccc(O)cc2)NC(=O)[C@H](C)NC(=O)[C@@H](NC(=O)[C@H](CC(=O)O)NC(=O)[C@@H]2CCCN2C(=O)CN)CSSC[C@@H](C(=O)N[C@H](C(=O)N[C@@H](Cc2c[nH]cn2)C(=O)N[C@@H](Cc2c[nH]cn2)C(N)=O)[C@@H](C)O)NC(=O)[C@H](Cc2c[nH]c3ccccc23)NC(=O)[C@H](C(C)C)NC1=O [C35A (F16H), GPDCAYHRGELVWCTHH] (H-GPDCAYHRGELVWCTHH-NH2; disulfide 4-14) | 11.4
4 | CC(C)C[C@@H]1NC(=O)[C@H](CCC(=O)O)NC(=O)CNC(=O)[C@H](CCCNC(=N)N)NC(=O)[C@H](Cc2c[nH]cn2)NC(=O)[C@H](Cc2ccc(O)cc2)NC(=O)[C@H](C)NC(=O)[C@@H](NC(=O)[C@H](CC(=O)O)NC(=O)[C@@H]2CCCN2C(=O)[C@@H](N)CO)CSSC[C@@H](C(=O)N[C@H](C(=O)N[C@@H](Cc2ccccc2)C(=O)N[C@@H](Cc2c[nH]cn2)C(N)=O)[C@@H](C)O)NC(=O)[C@H](Cc2c[nH]c3ccccc23)NC(=O)[C@H](C(C)C)NC1=O [C35A (G1S), SPDCAYHRGELVWCTFH] (H-SPDCAYHRGELVWCTFH-NH2; disulfide 4-14) | 9.3
5 | CC(C)C[C@@H]1NC(=O)[C@H](CCC(=O)O)NC(=O)CNC(=O)[C@H](CCCNC(=N)N)NC(=O)[C@H](Cc2c[nH]cn2)NC(=O)[C@H](Cc2ccc(O)cc2)NC(=O)[C@H](C)NC(=O)[C@@H](NC(=O)[C@H](CC(=O)O)NC(=O)[C@@H]2CCCN2C(=O)[C@@H](N)CO)CSSC[C@@H](C(=O)N[C@H](C(=O)N[C@@H](Cc2ccccc2)C(=O)N[C@@H](Cc2ccc(O)cc2)C(N)=O)[C@@H](C)O)NC(=O)[C@H](Cc2c[nH]c3ccccc23)NC(=O)[C@H](C(C)C)NC1=O [C35A (G1S, H17Y), SPDCAYHRGELVWCTFY] (H-SPDCAYHRGELVWCTFY-NH2; disulfide 4-14) | 11
6 | CC(C)C[C@@H]1NC(=O)[C@H](CCC(=O)O)NC(=O)CNC(=O)[C@H](CCCNC(=N)N)NC(=O)[C@H](Cc2c[nH]cn2)NC(=O)[C@H](Cc2ccc(O)cc2)NC(=O)[C@H](C)NC(=O)[C@@H](NC(=O)[C@H](CC(=O)O)NC(=O)[C@@H]2CCCN2C(=O)CN)CSSC[C@@H](C(=O)N[C@H](C(=O)N[C@@H](Cc2ccccc2)C(=O)N[C@@H](Cc2ccc(O)cc2)C(N)=O)[C@@H](C)O)NC(=O)[C@H](Cc2c[nH]c3ccccc23)NC(=O)[C@H](C(C)C)NC1=O [C35A (H17Y), GPDCAYHRGELVWCTFY] (H-GPDCAYHRGELVWCTFY-NH2; disulfide 4-14) | 12
7 | CC(C)C[C@@H]1NC(=O)[C@H](CCC(=O)O)NC(=O)CNC(=O)[C@H](CCCNC(=N)N)NC(=O)[C@H](Cc2c[nH]cn2)NC(=O)[C@H](Cc2ccc(O)cc2)NC(=O)[C@H](C)NC(=O)[C@@H](NC(=O)[C@H](CC(=O)O)NC(=O)[C@H](CC(=O)O)NC(=O)CN)CSSC[C@@H](C(=O)N[C@H](C(=O)N[C@@H](Cc2ccccc2)C(=O)N[C@@H](Cc2c[nH]cn2)C(N)=O)[C@@H](C)O)NC(=O)[C@H](Cc2c[nH]c3ccccc23)NC(=O)[C@H](C(C)C)NC1=O [C35A (P2D), GDDCAYHRGELVWCTFH] (H-GDDCAYHRGELVWCTFH-NH2; disulfide 4-14) | 13.3
8 | CC(C)C[C@@H]1NC(=O)[C@H](CCC(=O)O)NC(=O)CNC(=O)[C@H](CCCNC(=N)N)NC(=O)[C@H](Cc2c[nH]cn2)NC(=O)[C@H](Cc2ccc(O)cc2)NC(=O)[C@H](C)NC(=O)[C@@H](NC(=O)[C@H](CC(=O)O)NC(=O)[C@H](CC(=O)O)NC(=O)[C@@H](N)CO)CSSC[C@@H](C(=O)N[C@H](C(=O)N[C@@H](Cc2ccccc2)C(=O)N[C@@H](Cc2ccc(O)cc2)C(N)=O)[C@@H](C)O)NC(=O)[C@H](Cc2c[nH]c3ccccc23)NC(=O)[C@H](C(C)C)NC1=O [C35A (P2D, H17Y), SDDCAYHRGELVWCTFY] (H-SDDCAYHRGELVWCTFY-NH2; disulfide 4-14) | 13
9 | CC(C)C[C@@H]1NC(=O)[C@H](CCC(=O)O)NC(=O)CNC(=O)[C@H](CCCNC(=N)N)NC(=O)[C@H](Cc2c[nH]cn2)NC(=O)[C@H](Cc2ccc(O)cc2)NC(=O)[C@H](C)NC(=O)[C@@H](NC(=O)[C@H](CC(=O)O)NC(=O)[C@@H]2CCCN2C(=O)CN)CSSC[C@@H](C(=O)N[C@@H](CO)C(=O)N[C@@H](Cc2ccccc2)C(=O)N[C@@H](Cc2c[nH]cn2)C(N)=O)NC(=O)[C@H](Cc2c[nH]c3ccccc23)NC(=O)[C@H](C(C)C)NC1=O [C35A (T15S), GPDCAYHRGELVWCSFH] (H-GPDCAYHRGELVWCSFH-NH2; disulfide 4-14) | 14.4
10 | CC(C)C[C@@H]1NC(=O)[C@H](CC(N)=O)NC(=O)CNC(=O)[C@H](CC(N)=O)NC(=O)[C@H]([C@@H](C)O)NC(=O)[C@H](Cc2ccc(O)cc2)NC(=O)[C@H]([C@@H](C)O)NC(=O)[C@@H](NC(=O)[C@H](CC(=O)O)NC(=O)[C@@H]2CCCN2C(=O)CN)CSSC[C@@H](C(=O)N[C@H](C(=O)N[C@@H](Cc2ccccc2)C(=O)N[C@@H](Cc2c[nH]cn2)C(N)=O)[C@@H](C)O)NC(=O)[C@H](Cc2c[nH]c3ccccc23)NC(=O)[C@H](C(C)C)NC1=O [GFc-C35, GPDCTYTNGNLVWCTFH] (H-GPDCTYTNGNLVWCTFH-NH2; disulfide 4-14) | 14000
11 | CC(C)C[C@@H]1NC(=O)[C@H](CC(N)=O)NC(=O)CNC(=O)[C@H](CC(N)=O)NC(=O)[C@H]([C@@H](C)O)NC(=O)[C@H](Cc2ccc(O)cc2)NC(=O)[C@H]([C@@H](C)O)NC(=O)[C@@H](NC(=O)[C@H](CC(=O)O)NC(=O)[C@@H]2CCCN2)CSSC[C@@H](C(=O)N[C@H](C(=O)N[C@@H](Cc2ccccc2)C(N)=O)[C@@H](C)O)NC(=O)[C@H](Cc2c[nH]c3ccccc23)NC(=O)[C@H](C(C)C)NC1=O [GFc-C35-2/16, PDCTYTNGNLVWCTF] (H-PDCTYTNGNLVWCTF-NH2; disulfide 3-13) | 25000

Source: patent US9365619B2, “IgG-binding peptide and method for detecting and purifying IgG using same” (Otsuka Chemical Co., Ltd., priority 2011, dated 2016)
